“Also recorded” adds a separate entry of the source. Like-named read-outs stand apart in the source and are kept apart here. Where a SMILES comes first, the peptide text is derived from it.
Legend:
[1] = test system: human Kv1.1 channel (hKv1.1); test: Whole-cell patch-clamp, hKv1.1-expressing CHO cells; assay type: cell-based; details: see Table 1 and Fig. S3; 1 nM peptide in patch-clamp
Description: Chinese Hamster Ovarian cells were grown in Dulbecco’s modified Eagle’s medium–high glucose supplemented with 10% FBS, 2 mM L-glutamine, 100 U/ml penicillin-g, and 100 μg/ml streptomycin (Invitrogen) at 37 °C in a 5% CO2 and 95% air humidified atmosphere. Cells were passaged twice per week following a 5 min incubation in PBS containing 0.2 g/L EDTA. Chinese Hamster Ovarian cells were transiently transfected with plasmids encoding human Kv1.1 (hKCNA1 gene) and human Kv1.2 (hKCNA2 gene) in pCMV6-AC-GFP plasmid (RG211000 and RC222200, OriGene Technologies) using Lipofectamine 2000 (Invitrogen) following the manufacturer’s protocol, then cultured under standard conditions. Transfected cells were washed twice with 2 ml of extracellular solution (ECS, see below) and replated onto 35 mm polystyrene cell culture dishes (Cellstar, Greiner Bio-One) before the patch-clamp experiments. […] In general, currents were recorded 24 to 36 h after transfection.
Conventional whole-cell patch-clamp electrophysiology was used to record ionic currents. Micropipettes were pulled from GC150F-7.5 borosilicate capillaries (Harvard Apparatus) with tip diameters between 0.5 and 1 μm resulting in a tip resistance of 2 to 8 MΩ in the extracellular (bath) solution. […]
Native peptides, phage-expressed peptides, and positive controls used for them were dissolved in ECS supplemented with 0.1 mg/ml bovine serum albumin (BSA; Sigma-Aldrich Hungary). Bath perfusion around the measured cell with different extracellular solutions was achieved using a gravity flow micro perfusion system using a rate of 0.5 ml/min. […]
Voltage protocols: For measurement of Kv1.1 to 1.3 currents, voltage steps to +50 mV were applied from a holding potential of −120 mV and the peak current was measured every 15 s. […] The remaining current fraction at a given molar concentration was calculated as I/I0, where I0 is the peak current in the absence and I is the peak current at equilibrium block or […] after ∼2 min perfusion by the investigated peptide/phage.

[2] = target: T1, KcsA-Kv1.1 T-only chimera (Streptomyces lividans, UniProt P0A334, A54E/A57S/G53E/G56E/I60S/L59F/P55A/Q58H/R52A/R64D/T61S/Y62I); test: Phage-binding competition assay, KcsA-Kv1.1 T-only; parameters: species or system human Kv1.1 turret in Streptomyces lividans KcsA
T1 sequence (P0A334 1-160 R52A/G53E/A54E/P55A/G56E/A57S/Q58H/L59F/I60S/T61S/Y62I/R64D): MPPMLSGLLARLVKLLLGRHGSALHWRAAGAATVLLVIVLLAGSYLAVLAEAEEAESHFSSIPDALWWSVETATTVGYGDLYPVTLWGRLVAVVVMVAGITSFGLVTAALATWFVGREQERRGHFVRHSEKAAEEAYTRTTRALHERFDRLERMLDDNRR
Description: Phage stock solutions were diluted to working concentration with phage resuspension buffer supplemented with 2 mM DDM. For protein immobilization, the following amounts were used in a final volume of 50 μl/well: wt KcsA, 0.1 μg; KcsA-Kv1.1 T-only, 0.005 μg; KcsA-Kv1.1 T+F, 0.02 μg; KcsA-Kv1.2 T-only, 0.01 μg; KcsA-Kv1.2 T+F, 0.1 μg; KcsA-Kv1.3 T-only, 0.01 μg; and KcsA-Kv1.3 T+F, 0.1 μg. Protein samples were diluted in 50 μl of storage buffer (20 mM Tris pH8.0, 300 mM KCl, 2 mM DDM) and were added to the designated wells of a Pierce Clear, 96-Well Nickel Coated Plate (15442, Thermo Fisher Scientific), then incubated for 1 h at room temperature on a horizontal shaker at 130 rpm. The plate was blocked for 1 h at room temperature with 180 μl/well TBS-BSA supplemented with 1 mM DDM. Following blocking, the wells were washed 4× with washing buffer (300 μl TBS-Tween, 0.1% v/v) using a Wellwash Versa microplate washer (Thermo Fisher Scientific); then 50 μl phage solution (in TBS-BSA-Tween, 0.1% v/v, 2 mM DDM) at determined phage concentration was added to the wells and incubated for 1 h at room temperature on a horizontal shaker. The plate was washed 4× with washing buffer, then 50 μl anti-M13 IgG HRP (MA5-36125, Invitrogen) diluted to 1:2500 in TBS-Tween (0.1% v/v) was added to the wells and incubated for 1 h at room temperature. The plate was washed again 4× with 300 μl/well washing buffer. Finally, 50 μl/well 1-Step Ultra TMB-ELISA solution (34028, Thermo Fisher Scientific) was added to the wells, and the developing signal was stopped with 50 μl 1M HCl after 5 to 10 min. The light absorbance signal was read at 450 nm with Byonoy absorbance 96 plate reader (Byonoy GmbH).
For protein immobilization, the following amounts were used in a final volume of 50 μl/well: KcsA-Kv1.1 T-only, 0.005 μg; KcsA-Kv1.1 T+F, 0.01 μg; KcsA-Kv1.2 T-only, 0.025 μg; KcsA-Kv1.2 T+F, 0.0125 μg; KcsA-Kv1.3 T-only, 0.01 μg; and KcsA-Kv1.3 T+F, 0.1 μg. Protein samples were diluted in storage buffer. Binding of given concentrations of relevant ligand-displaying phages quantified by light absorbance ([…]) were investigated in a similar manner as in phage ELISA-binding assay, while different concentrations of competing toxin test substances were applied simultaneously. The results were converted to percent inhibitions (percent displacement) of the indicator phage binding, and relative affinities of the tested toxins were assessed by plotting percent displacements against log concentrations and determining half maximal inhibitory concentrations (IC50) by sigmoidal curve fitting using “Sigmoidal dose-response (variable slope) with least squares method” algorithm in GraphPad Prism 8 using the following equation: Y=Bottom+Top−Bottom/1+10^(LogEC50−×)⋅HillSlope

[3] = displacement of ShK-phage, KcsA-Kv1.1 T-only 0.005 μg/well on nickel-coated plate, mean ± SD (n = 3), NQ = not quantifiable, read-out: IC50, T-only chimera (Kv1.1)

SMILES	potency ranking, Kv1.1 [1]	IC50 [2, 3] [nM]	IC50 ([2]; ShK-phage competition, T-only KcsA-Kv1.1, value given in figure, sigmoidal fit to means of three replicates, read-out: IC50 (Fig. 8E)) [nM]
CC[C@H](C)[C@@H]1NC(=O)[C@@H]2CSSC[C@H](NC(=O)[C@H](CO)NC(=O)[C@@H](N)C(C)C)C(=O)N[C@@H]([C@@H](C)O)C(=O)NCC(=O)N[C@@H](CO)C(=O)N[C@@H](CCCCN)C(=O)N[C@@H](CC(=O)O)C(=O)N[C@@H](CSSC[C@@H](C(=O)N[C@@H](CCCCN)C(=O)N[C@H]3CSSC[C@@H](C(N)=O)NC(=O)CNC(=O)[C@H](Cc4ccc(O)cc4)NC3=O)NC(=O)[C@H](CO)NC(=O)[C@H](CCCCN)NC(=O)[C@H](CC(N)=O)NC1=O)C(=O)N[C@@H](Cc1ccc(O)cc1)C(=O)N[C@@H](C)C(=O)N1CCC[C@H]1C(=O)N[C@H]1CSSC[C@H](NC(=O)CNC(=O)[C@H]([C@@H](C)O)NC(=O)[C@H](CCC(N)=O)NC(=O)[C@H](CCCCN)NC(=O)[C@H](CCCNC(=N)N)NC1=O)C(=O)N1CCC[C@H]1C(=O)N[C@@H](CC(N)=O)C(=O)N[C@@H](C)C(=O)N[C@@H](CCCCN)C(=O)N2 [MTX, Maurotoxin] (HELM PEPTIDE1{V.S.C.T.G.S.K.D.C.Y.A.P.C.R.K.Q.T.G.C.P.N.A.K.C.I.N.K.S.C.K.C.Y.G.C.[am]}$PEPTIDE1,PEPTIDE1,3:R3-24:R3|PEPTIDE1,PEPTIDE1,9:R3-29:R3|PEPTIDE1,PEPTIDE1,13:R3-19:R3|PEPTIDE1,PEPTIDE1,31:R3-34:R3$$$V2.0; N-terminus and C-terminus assumed)	ShK > KTX1 >> MTX; also recorded: ShK > KTX1 > MTX	> 1000	
CC[C@H](C)[C@H](NC(=O)[C@H](CCC(=O)O)NC(=O)[C@@H](NC(=O)CN)C(C)C)C(=O)N[C@@H](CC(N)=O)C(=O)N[C@H](C(=O)N[C@@H](CCCCN)C(=O)N[C@H]1CSSC[C@@H]2NC(=O)[C@H](CCCCN)NC(=O)CNC(=O)[C@H](Cc3ccccc3)NC(=O)[C@H](CCCNC(=N)N)NC(=O)[C@H](CCSC)NC(=O)CNC(=O)[C@H](C)NC(=O)[C@H](CC(=O)O)NC(=O)[C@H](CCCCN)NC(=O)[C@@H]3CSSC[C@@H](C(=O)N[C@H](C(=O)N4CCC[C@H]4C(=O)N[C@@H](CCCCN)C(=O)O)[C@@H](C)O)NC(=O)[C@H](Cc4c[nH]cn4)NC(=O)[C@H](CSSC[C@H](NC(=O)[C@H](CCC(N)=O)NC(=O)[C@@H]4CCCN4C(=O)[C@H](CO)NC(=O)CNC(=O)[C@H](CO)NC1=O)C(=O)N[C@@H](CC(C)C)C(=O)N[C@@H](CCCCN)C(=O)N1CCC[C@H]1C(=O)N3)NC(=O)[C@H](CCCCN)NC(=O)[C@H](CCCNC(=N)N)NC(=O)[C@H](CC(N)=O)NC(=O)[C@H](CCSC)NC2=O)C(C)C [KTX1, Kaliotoxin-1]	ShK > KTX1 >> MTX; also recorded: ShK > KTX1 > MTX	1.27	
CC[C@H](C)[C@@H]1NC(=O)[C@@H](NC(=O)[C@H](CO)NC(=O)[C@@H](N)CCCNC(=N)N)CSSC[C@@H](C(=O)O)NC(=O)[C@H]([C@@H](C)O)NC(=O)CNC(=O)[C@@H]2CSSC[C@@H]3NC(=O)[C@H](CCC(N)=O)NC(=O)[C@H](Cc4ccccc4)NC(=O)[C@H](C)NC(=O)[C@H]([C@@H](C)O)NC(=O)[C@H](CSSC[C@H](NC(=O)[C@H](Cc4ccccc4)NC(=O)[C@H](CO)NC(=O)[C@H](CC(C)C)NC(=O)[C@H](CCCNC(=N)N)NC(=O)[C@H](Cc4ccc(O)cc4)NC(=O)[C@H](CCCCN)NC(=O)[C@H](CCSC)NC(=O)[C@H](CO)NC(=O)[C@H](Cc4c[nH]cn4)NC(=O)[C@H](CCCCN)NC3=O)C(=O)N[C@@H](CCCNC(=N)N)C(=O)N[C@@H](CCCCN)C(=O)N[C@@H]([C@@H](C)O)C(=O)N2)NC(=O)[C@H](CCCNC(=N)N)NC(=O)[C@H](CO)NC(=O)[C@H](CCCCN)NC(=O)[C@@H]2CCCN2C(=O)[C@H]([C@@H](C)CC)NC(=O)[C@H]([C@@H](C)O)NC(=O)[C@H](CC(=O)O)NC1=O [ShK, Stichodactyla toxin]	ShK > KTX1 >> MTX; also recorded: ShK > KTX1 > MTX		0.317
